From publication PMC8667925, “New 1,2,4-oxadiazole derivatives with positive mGlu4 receptor modulation activity and antipsychotic-like properties” (Journal of Enzyme Inhibition and Medicinal Chemistry, 2021)
“Also recorded” adds a separate entry of the source. Marks after values point to notes of the source that are not given here.

Assays:
[1] = biological target: T1, mGlu7 receptor (Homo sapiens, UniProt Q14831); assay: cAMP accumulation assay in cells expressing mGlu7 receptor (agonist, PAM, NAM modes); format: cell-based; settings: 10 µM, agonist mode
T1 construct: mGlu4 receptor NM_000841, mGlu7 receptor NM_000844.2, and mGlu8 receptor NM_000845; expressed in transfected cells; host or cells: T-REx 293
T1 sequence (Q14831 35-915): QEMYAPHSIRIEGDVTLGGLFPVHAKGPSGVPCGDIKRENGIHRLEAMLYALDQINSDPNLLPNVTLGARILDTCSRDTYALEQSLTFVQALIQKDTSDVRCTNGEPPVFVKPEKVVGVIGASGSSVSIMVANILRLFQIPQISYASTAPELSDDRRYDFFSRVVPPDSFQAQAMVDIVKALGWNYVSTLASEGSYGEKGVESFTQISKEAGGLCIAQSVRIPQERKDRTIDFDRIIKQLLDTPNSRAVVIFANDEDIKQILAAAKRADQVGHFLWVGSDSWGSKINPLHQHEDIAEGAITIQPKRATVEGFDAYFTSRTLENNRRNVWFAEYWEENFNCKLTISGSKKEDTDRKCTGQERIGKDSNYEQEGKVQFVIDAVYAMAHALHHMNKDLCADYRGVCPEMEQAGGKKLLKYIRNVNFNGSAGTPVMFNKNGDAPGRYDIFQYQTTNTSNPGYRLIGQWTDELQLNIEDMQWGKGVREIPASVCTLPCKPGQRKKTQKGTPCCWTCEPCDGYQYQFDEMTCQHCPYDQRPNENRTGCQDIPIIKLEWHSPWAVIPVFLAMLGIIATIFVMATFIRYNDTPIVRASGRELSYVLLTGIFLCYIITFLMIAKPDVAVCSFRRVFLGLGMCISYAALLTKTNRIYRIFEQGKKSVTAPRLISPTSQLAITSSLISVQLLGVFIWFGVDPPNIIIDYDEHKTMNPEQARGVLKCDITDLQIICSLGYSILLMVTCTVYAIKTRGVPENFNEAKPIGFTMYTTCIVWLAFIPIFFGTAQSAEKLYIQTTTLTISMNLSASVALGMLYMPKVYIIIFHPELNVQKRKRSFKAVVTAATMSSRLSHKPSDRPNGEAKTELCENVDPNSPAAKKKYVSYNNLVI
Procedure: The compounds were tested in the agonist, PAM (in the presence of EC20 concentration of L-Glu) or NAM (with EC80 of L-Glu) modes of forskolin-induced cAMP using T-REx 293 cells expressing the protein of a given receptor.
Figure 4. The activity of compounds 34, 37, 49, 52, 60, 62 and reference drugs MMPIP (a selective NAM of mGlu7 receptor) and AZ12216052 (a PAM of mGlu8 receptor) tested at a concentration of 10 μM in the cAMP accumulation assay in cells expressing mGlu7 and mGlu8 receptors. The percent activity refers to two extreme FRET signals: 0% corresponds to forskolin treatment alone and 100% to maximal FRET signal for the control cells (without any treatment). A/D – agonistic activity; B/E – PAM activity measured in the presence of L-Glu at the EC20 concentration (0.1 mM for mGlu7 receptor, and 1 μM for mGlu8 receptor); C/F – NAM activity measured in the presence of L-Glu at the EC80 concentration (1 mM for mGlu7 receptor, 10 μM for Glu8 receptor).
(§1) Determination of the intracellular cAMP through a homogeneous time-resolved fluorescence (HTRF) cAMP dynamic 2 kit from Cisbio (Codolet, France) was described previously by Chruścicka et al.[91]. Briefly, cells were grown in DMEM supplemented with 10% foetal bovine serum (FBS) (tetracycline free). Forty-eight hours before the experiments, mGlu receptor expression was induced by the addition of 0.75 µg/mL tetracycline. Twenty hours before the experiment, FBS and L-Glu were removed from the medium. Thereafter, the cells were scraped and centrifuged. A cell pellet was suspended in Hanks-HEPES (130 mM NaCl, 5.4 mM KCl, 1.8 mM CaCl2, 0.8 mM MgSO4, 0.9 mM NaH2PO4, 20 mM HEPES, and 3.25 mM glucose; pH 7.4). Then, the cell suspension was incubated in the presence of 10 µM forskolin (or 3 µM forskolin for mGlu7 receptor), the agonist L-glutamate and a compound for 5 min. Next, 10 µl of the cell suspension was mixed with 5 µl of cAMP-d2 conjugate and 5 µL of anti-cAMP cryptate conjugate. After 1 h of incubation at rt, the fluorescence at 620 nm and 665 nm was read (Tecan Infinite M1000). The results were calculated as the 665 nm/620 nm ratio multiplied by 10^4. Each sample was prepared in triplicate.

[2] = tested on: Salmonella typhimurium strains TA98 and TA100; format: cell-based; settings: TA98 and TA100, with and without S9, ≤ 30 µM
Procedure: The primary assessment of the cardiotoxic risk and mutagenic potential of the six selected 1,2,4-oxadiazole derivatives was performed in the hERG channel assay and the mini-AMES test, respectively. The mutagenicity potential was determined in strains TA98 (frameshift mutation) and TA100 (base-pair substitution) of Salmonella typhimurium in the presence and absence of an exogenous metabolic activation system (rat liver S9 fraction) containing mammalian microsomal enzymes.
The Ames microplate fluctuation protocol (MPF) assay was performed with Salmonella typhimurium strains TA98 and TA100, […]. The bacterial strain as well as the exposure and indicator medium were obtained from Xenometrix AG (Allschwil, Switzerland). […] After the addition of indicator medium, each well of the 24-well plate was aliquoted into 48 wells of a 384-well plate.
The occurrence of reversion events to histidine prototrophy was observed as the growth of bacteria in the indicator medium without histidine after 72 h of incubation at 37 °C. Bacterial growth in 384-well plates was visualised by a colour change of medium from violet to yellow due to the addition of pH indicator dye. The absorbance was measured with a microplate reader (EnSpire) at 420 nm. The reference mutagen NQNO (0.5 mM) was used as a positive control in the experiments. The medium control baseline (MCB) was calculated, as derived from the mean number of revertants in the medium control plus one standard deviation.
AMES test was conducted with two Salmonella typhimurium strains TA98 and TA100 in the presence or absence of liver homogenate S9 to simulate the metabolic conversions of tested compounds with liver enzymes. The AMES MPF 98/100 assay from Xenometrix was performed as described by the supplier. Data were analysed with the AMES MPF calculation […]
(also on this page, place not known: TA10 cal culation TA98 - S9 Revertants TA98 + S9 Revertants - S9 Revertants TA100 + S9 Revertants TA98 - S9 Revertants TA98 + S9 Revertants TA100 - S9 Revertants 0 TA100 + S9 Revertants)

[3] = biological target: T2, mGlu4 receptor (Homo sapiens, UniProt Q14833); assay: forskolin-stimulated cAMP assay, PAM mode (EC20 of L-Glu), T-REx 293 cells; format: cell-based; settings: SEM where given; for EC50 / Emax: PAM mode; for EC50: EC20 (3 µM) L-Glu, T-REx 293 cells expressing human mGlu4 receptor; for Emax: T-REx-293, human mGlu4, read-out: GluMax; for Fold shift of L-Glu dose-response curve: in the presence of 10 µM of compound
T2 construct: mGlu4 receptor NM_000841, mGlu7 receptor NM_000844.2, and mGlu8 receptor NM_000845; expressed in transfected cells; host or cells: T-REx 293
T2 sequence (Q14833 33-912): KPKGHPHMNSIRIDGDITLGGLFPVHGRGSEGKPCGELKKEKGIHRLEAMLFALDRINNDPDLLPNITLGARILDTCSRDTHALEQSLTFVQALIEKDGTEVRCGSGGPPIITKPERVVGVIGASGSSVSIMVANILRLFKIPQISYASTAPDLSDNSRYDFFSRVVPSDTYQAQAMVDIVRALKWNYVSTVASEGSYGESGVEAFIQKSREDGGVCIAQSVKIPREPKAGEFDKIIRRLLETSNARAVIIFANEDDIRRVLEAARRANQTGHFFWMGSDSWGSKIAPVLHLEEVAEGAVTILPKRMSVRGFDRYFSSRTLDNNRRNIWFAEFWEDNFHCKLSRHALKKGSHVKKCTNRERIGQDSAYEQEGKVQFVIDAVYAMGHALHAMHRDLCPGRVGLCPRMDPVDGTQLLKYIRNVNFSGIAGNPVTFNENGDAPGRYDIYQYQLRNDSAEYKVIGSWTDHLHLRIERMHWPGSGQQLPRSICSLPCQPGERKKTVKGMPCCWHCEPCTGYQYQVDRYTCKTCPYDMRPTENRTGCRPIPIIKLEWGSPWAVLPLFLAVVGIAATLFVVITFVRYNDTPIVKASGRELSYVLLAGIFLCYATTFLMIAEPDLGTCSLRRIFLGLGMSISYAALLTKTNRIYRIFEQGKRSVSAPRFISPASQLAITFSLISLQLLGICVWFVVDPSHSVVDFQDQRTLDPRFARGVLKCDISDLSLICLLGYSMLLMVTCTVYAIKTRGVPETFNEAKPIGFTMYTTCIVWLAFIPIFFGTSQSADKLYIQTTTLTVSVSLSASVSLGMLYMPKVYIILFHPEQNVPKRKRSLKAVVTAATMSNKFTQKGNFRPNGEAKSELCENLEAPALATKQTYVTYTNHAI
Procedure: The activity of the compounds was assessed in vitro in a forskolin-stimulated cAMP assay in T-REx 293 cells expressing human mGlu4 receptors in the presence of an EC20 concentration of L-Glu; a PAM was identified if it potentiated cAMP inhibition by the Gi/o-dependent pathway of mGlu4 receptor activation; i.e. if it was able to produce a leftward shift in the potency of the endogenous agonist.
as §1
Statistical calculations were performed using GraphPad Prism 5.04 software (GraphPad Software, La Jolla, CA, USA). The curves were fitted to a 3-parametric logistic equation, allowing for the determination of EC50 values. Each data point was analysed in triplicate.

[4] = tested on: Albino Swiss mice; assay: DOI-induced head twitch test (HTR); format: in vivo; settings: DOI 2.5 mg/kg i.p.
Procedure: The compounds were dissolved in a small amount of 100% EtOH and then adjusted with 20% cyclodextrin, and the pH was adjusted to 6.0. The investigated compounds were administered intraperitoneally (i.p.) 60 min before the behavioural test. Control drugs i.e. diazepam, clozapine and imipramine (Sigma–Aldrich, St. Louis, USA), were administered i.p. 60 min before the behavioural test. Cyclodextrin (20%) was used as a vehicle. All solutions were prepared immediately prior to the experiments and were administered at a constant volume of 10 ml/kg.
The experiments were performed according to the procedure described in our previous studies[75]^,[80]. Briefly, to habituate mice to the experimental environment, each animal was transferred to a 12 cm (diameter) × 20 cm (height) glass cage lined with sawdust 30 min before treatment. Test compounds were administered intraperitoneally (i.p.) at doses of 2.5, 5, and 10 mg/kg body weight 60 min before the test was performed. The head twitch response (HTR) in mice was induced by DOI (2.5 mg/kg, i.p.). Immediately after treatment, the number of head twitches was counted during a 20 min session. Haloperidol and clozapine were used as the reference compounds at active doses of 0.2 and 5 mg/kg, respectively.

[5] = 2.5 mg/kg i.p., 60 min before test
[6] = 10 mg/kg i.p., 60 min before test
[7] = over the doses 2.5, 5 and 10 mg/kg i.p.

COc1cc(NC(=O)c2ccccn2)ccc1-c1noc(-c2ccccc2Cl)n1 [Compound 34]
agonistic activity at mGlu7 receptor [1]: direct agonistic activity | mutagenic activity (mini-AMES) [2]: no mutagenic potential | EC50 [3]: 656 nM | Emax [3]: 114% | Fold shift of L-Glu dose-response curve [3]: 13.4 (2.00)^d | effect on DOI-induced HTR [4, 5]: statistically significant effect; also recorded: significant reductions in the HTR score | effect on DOI-induced HTR [4, 6]: statistically significant effect; also recorded: significant reductions in the HTR score | effect on DOI-induced HTR [4, 7]: significant anxiolytic- and antipsychotic-like properties

COc1cc(NC(=O)c2ccccn2)ccc1-c1noc(-c2ccccc2F)n1 [Compound 37]
agonistic activity at mGlu7 receptor [1]: direct agonistic activity | mutagenic activity (mini-AMES) [2]: no mutagenic potential | EC50 [3]: 393 nM | Emax [3]: 116% | Fold shift of L-Glu dose-response curve [3]: 3.68 (0.19)^d | effect on DOI-induced HTR [4, 7]: significant anxiolytic- and antipsychotic-like properties; also recorded: reversed the DOI-induced effect at all investigated doses; also recorded: dose-dependent reverse effects

O=C(Nc1ccc(-c2noc(-c3ccccc3Cl)n2)c(Cl)c1)c1ccccn1 [Compound 52, N-(3-chloro-4-(5-(2-chlorophenyl)-1,2,4-oxadiazol-3-yl)phenyl)picolinamide]
agonistic activity at mGlu7 receptor [1]: direct agonistic activity | mutagenic activity (mini-AMES) [2]: no mutagenic potential | EC50 [3]: 282 nM | Emax [3]: 123% | Fold shift of L-Glu dose-response curve [3]: 8.03 (0.76)^d | effect on DOI-induced HTR [4, 7]: significant anxiolytic- and antipsychotic-like properties; also recorded: at all doses significantly reduced; also recorded: Clear dose-response effects

O=C(Nc1ccc(-c2noc(-c3ccccc3Cl)n2)c(C(F)(F)F)c1)c1ccccn1 [Compound 60]
agonistic activity at mGlu7 receptor [1]: direct agonistic activity | mutagenic activity (mini-AMES) [2]: no mutagenic potential | EC50 [3]: 390 nM | Emax [3]: 120% | Fold shift of L-Glu dose-response curve [3]: 2.94 (0.1)^d | effect on DOI-induced HTR [4, 5]: significant reductions in the HTR score | effect on DOI-induced HTR ([4]; 5 mg/kg i.p., 60 min before test): not statistically significant | effect on DOI-induced HTR [4, 6]: significant reductions in the HTR score | effect on DOI-induced HTR [4, 7]: significant anxiolytic- and antipsychotic-like properties
